According to publication PMC8536978 (Viruses, 2021):
pIC50: −log10 of the molar value. Like-named read-outs stand apart in the source and are kept apart here.

What was measured:
HIV-1 IIIB [1] = assay: HIV-1 IIIB replication in PBMCs (p24 ELISA, gag and nef mRNA RT-PCR); assay type: cell-based; conditions: for reduction in gag mRNA / reduction in p24 / reduction in HIV-1 nef mRNA: PBMCs infected with HIV-1 IIIB; for reduction in gag mRNA / reduction in HIV-1 nef mRNA: real-time RT-PCR; for reduction in p24: p24 ELISA
PBMCs = assay: Trypan blue exclusion viability of HIV-1 IIIB infected PBMCs; assay type: cell-based
[2] = tested on: HIV-1 reverse transcription; assay: HIV-1 reverse transcription, early and late LTR DNA products by real-time PCR; assay type: cell-based; conditions: HIV-1 DNA 6 h post infection
luciferase translation = assay: In vitro translation of luciferase RNA in rabbit reticulocyte lysate; assay type: biochemical; conditions: 30 μM, 90 min
Tat–TAR RNA interaction = Tat–TAR RNA interaction pull-down assay; assay type: binding, HIV-1; conditions: 10 µM compound, Flag-Tat lysate, biotinylated TAR RNA on beads
Tat–CDK9 interaction = Tat–CDK9 interaction (UniProt P04608+P50750); assay: Co-immunoprecipitation of CDK9 with Flag-Tat from 293T cells; assay type: cell-based; conditions: 20 μM, 24 h
Sequence of Tat–CDK9 interaction (P04608 whole entry): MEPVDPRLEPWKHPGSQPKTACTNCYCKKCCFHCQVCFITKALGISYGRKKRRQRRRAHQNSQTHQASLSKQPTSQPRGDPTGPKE
Sequence of Tat–CDK9 interaction (P50750 whole entry): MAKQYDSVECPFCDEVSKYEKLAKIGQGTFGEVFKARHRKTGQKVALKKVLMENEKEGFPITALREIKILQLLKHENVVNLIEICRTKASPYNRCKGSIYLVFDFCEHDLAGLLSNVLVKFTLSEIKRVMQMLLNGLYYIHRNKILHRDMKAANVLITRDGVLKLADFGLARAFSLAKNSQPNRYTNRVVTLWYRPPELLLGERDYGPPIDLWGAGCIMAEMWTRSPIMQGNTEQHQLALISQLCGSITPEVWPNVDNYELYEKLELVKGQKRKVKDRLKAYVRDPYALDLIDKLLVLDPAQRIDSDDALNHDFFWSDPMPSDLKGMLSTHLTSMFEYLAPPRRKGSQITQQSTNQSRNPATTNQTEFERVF

[3] = tested on: HIV-1-LUC-G (VSVG pseudotyped HIV-1 expressing luciferase); assay: microbe, parasite or virus in culture; assay type: cell-based; conditions: for pIC50: read-out: One round HIV-1 infection IC50
HIV-1 LTR + Tat = assay type: cell-based; conditions: Human immunodeficiency virus 1, HEK-293T, 24 h, read-out: HIV-1 LTR + Tat (Tat-induced transcription) IC50
[4] = MTT cell proliferation/viability assay; assay type: cell-based; conditions: human, CEM T cells, 1-100 μM
[5] = target: Tat–cyclin T1 interaction (UniProt O60563+P04608); assay: Co-immunoprecipitation of cyclin T1 with Flag-Tat from 293T cells; assay type: cell-based; conditions: 24 h; for reduction of cyclin T1 associated with Tat: 20 μM
Sequence of Tat–cyclin T1 interaction (P04608 whole entry): as the sequence (P04608 whole entry) above
Sequence of Tat–cyclin T1 interaction (O60563 whole entry): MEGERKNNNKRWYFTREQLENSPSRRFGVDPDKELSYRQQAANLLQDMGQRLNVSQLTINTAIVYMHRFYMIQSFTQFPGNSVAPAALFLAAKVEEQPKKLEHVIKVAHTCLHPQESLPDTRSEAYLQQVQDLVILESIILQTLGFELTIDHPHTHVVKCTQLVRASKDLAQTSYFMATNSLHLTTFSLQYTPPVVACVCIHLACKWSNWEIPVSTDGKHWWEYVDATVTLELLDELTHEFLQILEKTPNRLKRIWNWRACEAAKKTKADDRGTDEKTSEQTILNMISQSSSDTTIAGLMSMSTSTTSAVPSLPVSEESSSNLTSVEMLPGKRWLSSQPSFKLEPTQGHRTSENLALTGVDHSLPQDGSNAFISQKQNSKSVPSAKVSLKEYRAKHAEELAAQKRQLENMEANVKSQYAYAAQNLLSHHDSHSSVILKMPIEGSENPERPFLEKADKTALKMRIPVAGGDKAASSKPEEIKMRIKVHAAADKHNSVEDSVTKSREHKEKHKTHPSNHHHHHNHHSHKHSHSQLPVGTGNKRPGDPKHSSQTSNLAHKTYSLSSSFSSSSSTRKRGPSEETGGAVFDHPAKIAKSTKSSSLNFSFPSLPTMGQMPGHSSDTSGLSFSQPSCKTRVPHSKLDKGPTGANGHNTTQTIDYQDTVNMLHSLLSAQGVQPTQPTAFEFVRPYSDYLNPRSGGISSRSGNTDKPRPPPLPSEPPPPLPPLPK

HIV-1 IIIB [6] = assay: HIV-1 IIIB replication in CEM T cells (p24 ELISA, gag mRNA RT-PCR); assay type: cell-based; conditions: CEM T cells infected with HIV-1 IIIB; for reduction in p24 levels: p24 ELISA; for reduction of HIV-1 gag mRNA: real-time RT-PCR
HIV-1 LTR = assay: Basal HIV-1 transcription, HIV-1 LTR-luciferase reporter in 293T cells; assay type: cell-based; conditions: HIV-1 LTR-luciferase reporter alone, 24 h treatment
TAR RNA = tested on: TAR RNA; design: method as in earlier work; conditions: cited from earlier work
[7] = Human immunodeficiency virus 1, T-cell

SMILES: Cc1cn([C@H]2C[C@H](N=[N+]=[N-])[C@@H](CO)O2)c(=O)[nH]c1=O [AZT, azidothymidine]
- reduction in gag mRNA (HIV-1 IIIB [1]): strongly inhibited HIV-1
- reduction of PBMCs viability (PBMCs; human, 48 h): 29%
- reduction of HIV-1 early LTR products [2]: 1.8 fold
- reduction of HIV-1 late LTR products [2]: 63 fold

SMILES: Nc1ccc2oc(-c3cc(F)c(F)cc3Cl)nc2c1 [T0516-4834]
- HIV-1 inhibition (HIV-1 IIIB [1]; HIV-1 IIIB infected PBMCs, 10 µM): ~ 10 fold
- reduction in p24 (HIV-1 IIIB [1]): 4 fold
- reduction in HIV-1 nef mRNA (HIV-1 IIIB [1]): 10 fold
- reduction in gag mRNA (HIV-1 IIIB [1]): 2.5 fold
- reduction in luciferase translation (luciferase translation): ~ 30%
- inhibition of Tat binding to TAR RNA (Tat–TAR RNA interaction): 2.5 fold
- reduction in CDK9 associated with Tat (Tat–CDK9 interaction): 1.4 fold
- Luciferase (%, relative to DMSO control) [3]: 37.74%
- pIC50 [3, 7]: 6.70
- pIC50 [3]: 6.52
- pIC50 (HIV-1 LTR + Tat): 5.70
- EC50 at 24 h [4]: > 100 µM
- inhibition at 20 µM ([5]; HEK-293T, read-out: reduction of cyclin T1 associated with Tat): < 20%
- reduction in p24 levels (HIV-1 IIIB [6]): 4 fold
- reduction of HIV-1 gag mRNA (HIV-1 IIIB [6]): 27 fold

SMILES: O=C1OCCC1Sc1nnc(-c2sc3ccccc3c2Cl)o1 (centres unmarked) [T5628834]
- reduction in p24 (HIV-1 IIIB [1]): 3.2 fold
- reduction in HIV-1 nef mRNA (HIV-1 IIIB [1]): no effect
- reduction in CDK9 associated with Tat (Tat–CDK9 interaction): 4 fold
- Luciferase (%, relative to DMSO control) [3]: 28.71%
- pIC50 [3, 7]: 5.46
- pIC50 [3]: 5.43
- pIC50 (HIV-1 LTR + Tat): 4.70
- EC50 at 24 h [4]: > 100 µM
- reduction of cyclin T1 associated with Tat [5]: 1.6 fold
- reduction in p24 levels (HIV-1 IIIB [6]): 1.26 fold
- reduction of HIV-1 gag mRNA (HIV-1 IIIB [6]): 1.6 fold

SMILES: O=C(O)COc1ccc(/C=C/C(=O)c2ccc3c(c2)OCO3)cc1 [T6780107]
- reduction in p24 (HIV-1 IIIB [1]): No significant effect
- reduction in HIV-1 nef mRNA (HIV-1 IIIB [1]): no effect
- reduction in gag mRNA (HIV-1 IIIB [1]): No significant effect
- reduction in CDK9 associated with Tat (Tat–CDK9 interaction): no effect
- Luciferase (%, relative to DMSO control) [3]: 18.24%
- pIC50 [3, 7]: 5.53
- pIC50 [3]: 5.43
- pIC50 (HIV-1 LTR): 5.33
- pIC50 (HIV-1 LTR + Tat): 5.46
- EC50 at 24 h [4]: > 100 µM
- reduction of cyclin T1 associated with Tat [5]: no significant effect
- reduction in p24 levels (HIV-1 IIIB [6]): 2.2 fold
- reduction of HIV-1 gag mRNA (HIV-1 IIIB [6]): 5.5 fold

SMILES: CC(=O)c1ccc2c(c1)N(CCCN(C)C)c1ccccc1S2 [acetylpromazine]
- affinity of binding to TAR RNA (TAR RNA): high affinity (nanomolar)

SMILES: C[C@@H]1C[C@@H]([C@H](O)CC2CC(=O)NC(=O)C2)C(=O)[C@@H](C)C1 [cycloheximide, reference compound]
- reduction in luciferase translation (luciferase translation): completely blocked translation

SMILES: Cc1nnc(C(=O)NC(C)(C)c2nc(C(=O)NCc3ccc(F)cc3)c(O)c(=O)n2C)o1 [raltegravir, reference compound]
- reduction in gag mRNA (HIV-1 IIIB [1]): strongly inhibited HIV-1
- reduction of PBMCs viability (PBMCs; HIV-1 IIIB infected PBMCs, trypan blue exclusion): 18%
